How the values were obtained:
Assay type in all cases: cell-based
alpha2C receptor = target: T1, alpha2C receptor (Homo sapiens, UniProt P18825); assay: Receptor Selection and Amplification Technology (RSAT) assay, Alpha 2C; conditions: RSAT, transfected NIH-3T3 cells with Gq/i5; not active = at concentrations less than 10 micromolar
T1 construct: expressed in transfected cells; host or cells: NIH-3T3 cells
T1 sequence (P18825 1-462): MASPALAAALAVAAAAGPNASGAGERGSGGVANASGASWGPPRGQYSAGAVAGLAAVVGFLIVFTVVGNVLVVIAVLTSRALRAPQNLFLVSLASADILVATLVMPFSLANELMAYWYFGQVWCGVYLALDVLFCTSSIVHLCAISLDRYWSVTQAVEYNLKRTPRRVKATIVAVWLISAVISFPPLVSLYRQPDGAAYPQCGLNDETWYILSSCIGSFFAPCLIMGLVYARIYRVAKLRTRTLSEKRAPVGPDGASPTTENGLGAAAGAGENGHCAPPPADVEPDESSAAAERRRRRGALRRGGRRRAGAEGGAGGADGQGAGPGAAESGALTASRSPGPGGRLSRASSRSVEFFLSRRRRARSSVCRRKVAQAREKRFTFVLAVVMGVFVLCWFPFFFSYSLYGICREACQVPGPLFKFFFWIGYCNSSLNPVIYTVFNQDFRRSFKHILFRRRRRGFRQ
Protocol: (§1) Receptor Selection and Amplification Technology (RSAT) Assay
(§2) The RSAT assay measures a receptor-mediated loss of contact inhibition that results in selective proliferation of receptor-containing cells in a mixed population of confluent cells. The increase in cell number is assessed with an appropriate transfected marker gene such as β-galactosidase, the activity of which can be easily measured in a 96-well format. Receptors that activate the G protein, Gq, elicit this response. Alpha2 receptors, which normally couple to Gi, activate the RSAT response when coexpressed with a hybrid Gq protein that has a Gi receptor recognition domain, called Gq/i5.
(§3) NIH-3T3 cells are plated at a density of 2×10^6 cells in 15 cm dishes and maintained in Dulbecco's modified Eagle's medium supplemented with 10% calf serum. One day later, cells are cotransfected by calcium phosphate precipitation with mammalian expression plasmids encoding p-SV-β-galactosidase (5-10 μg), receptor (1-2 μg) and G protein (1-2 μg). 40 μg salmon sperm DNA may also be included in the transfection mixture. […] Cells are thawed and 100 μl added to 100 μl aliquots of various concentrations of drugs in triplicate in 96-well dishes. Incubations continue 72-96 hr at 37° C. After washing with phosphate-buffered saline, β-galactosidase enzyme activity is determined by adding 200 μl of the chromogenic substrate (consisting of 3.5 mM o-nitrophenyl-β-D-galactopyranoside and 0.5% nonidet P-40 in phosphate buffered saline), incubating overnight at 30° C. and measuring optical density at 420 nm. The absorbance is a measure of enzyme activity, which depends on cell number and reflects a receptor-mediated cell proliferation. The efficacy or intrinsic activity is calculated as a ratio of the maximal effect of the drug to the maximal effect of a standard full agonist for each receptor subtype. Brimonidine, also called UK14304, the chemical structure of which is shown below, is used as the standard agonist for the alpha2A, alpha2B and alpha2C receptors. The EC50 is the concentration at which the drug effect is half of its maximal effect.
(§4) EC50 values are nanomolar. NA stands for “not active” at concentrations less than 10 micromolar. IA stands for “intrinsic activity.”

alpha2A receptor = target: T2, alpha2A receptor (Homo sapiens, UniProt P08913); assay: Receptor Selection and Amplification Technology (RSAT) assay, Alpha 2A; conditions: RSAT, transfected NIH-3T3 cells with Gq/i5; not active = at concentrations less than 10 micromolar
T2 construct: expressed in transfected cells; host or cells: NIH-3T3 cells
T2 sequence (P08913 1-465): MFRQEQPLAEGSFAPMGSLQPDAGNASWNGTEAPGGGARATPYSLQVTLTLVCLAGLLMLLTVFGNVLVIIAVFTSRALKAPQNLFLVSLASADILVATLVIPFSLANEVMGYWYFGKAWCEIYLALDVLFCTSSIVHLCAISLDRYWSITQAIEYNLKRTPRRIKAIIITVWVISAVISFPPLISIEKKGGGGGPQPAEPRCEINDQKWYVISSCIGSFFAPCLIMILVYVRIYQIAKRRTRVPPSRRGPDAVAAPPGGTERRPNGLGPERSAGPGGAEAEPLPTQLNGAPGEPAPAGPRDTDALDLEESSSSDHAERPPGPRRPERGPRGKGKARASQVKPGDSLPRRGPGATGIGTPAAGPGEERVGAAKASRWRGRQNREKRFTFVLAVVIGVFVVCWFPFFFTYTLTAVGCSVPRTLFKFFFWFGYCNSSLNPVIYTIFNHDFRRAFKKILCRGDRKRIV
Protocol: as §1, §2, §3, §4

alpha2B receptor = target: T3, alpha2B receptor (Homo sapiens, UniProt P18089); assay: Receptor Selection and Amplification Technology (RSAT) assay, Alpha 2B; conditions: for EC50: RSAT, transfected NIH-3T3 cells with Gq/i5, not active = at concentrations less than 10 micromolar, read-out: Alpha 2B EC50; for Alpha 2B IA (intrinsic activity): ratio of maximal effect to that of standard full agonist brimonidine (UK14304)
T3 construct: expressed in transfected cells; host or cells: NIH-3T3 cells
T3 sequence (P18089 1-450): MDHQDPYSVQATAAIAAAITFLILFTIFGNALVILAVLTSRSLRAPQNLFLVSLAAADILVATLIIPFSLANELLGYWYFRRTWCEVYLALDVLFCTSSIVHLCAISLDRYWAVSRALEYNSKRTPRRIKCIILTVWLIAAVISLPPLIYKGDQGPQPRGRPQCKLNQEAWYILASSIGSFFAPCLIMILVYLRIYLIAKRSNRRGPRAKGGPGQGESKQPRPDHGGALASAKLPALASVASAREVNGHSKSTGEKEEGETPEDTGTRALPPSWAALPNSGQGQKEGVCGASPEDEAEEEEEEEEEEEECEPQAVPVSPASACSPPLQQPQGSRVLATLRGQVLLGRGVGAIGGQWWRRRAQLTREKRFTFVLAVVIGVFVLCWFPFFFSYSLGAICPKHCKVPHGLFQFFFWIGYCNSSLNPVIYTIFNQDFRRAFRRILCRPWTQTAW
Protocol: as §1, §2
NIH-3T3 cells are plated at a density of 2×10^6 cells in 15 cm dishes and maintained in Dulbecco's modified Eagle's medium supplemented with 10% calf serum. One day later, cells are cotransfected by calcium phosphate precipitation with mammalian expression plasmids encoding p-SV-β-galactosidase (5-10 μg), receptor (1-2 μg) and G protein (1-2 μg). 40 μg salmon sperm DNA may also be included in the transfection mixture. Fresh media is added on the following day and 1-2 days later, cells are harvested and frozen in 50 assay aliquots. Cells are thawed and 100 μl added to 100 μl aliquots of various concentrations of drugs in triplicate in 96-well dishes. Incubations continue 72-96 hr at 37° C. After washing with phosphate-buffered saline, β-galactosidase enzyme activity is determined by adding 200 μl of the chromogenic substrate (consisting of 3.5 mM o-nitrophenyl-β-D-galactopyranoside and 0.5% nonidet P-40 in phosphate buffered saline), incubating overnight at 30° C. and measuring optical density at 420 nm. The absorbance is a measure of enzyme activity, which depends on cell number and reflects a receptor-mediated cell proliferation. The efficacy or intrinsic activity is calculated as a ratio of the maximal effect of the drug to the maximal effect of a standard full agonist for each receptor subtype. Brimonidine, also called UK14304, the chemical structure of which is shown below, is used as the standard agonist for the alpha2A, alpha2B and alpha2C receptors. The EC50 is the concentration at which the drug effect is half of its maximal effect.
The results of the RSAT assay with several exemplary compounds of the invention are disclosed in Table 1 above together with the chemical formulas of these exemplary compounds. EC50 values are nanomolar. NA stands for “not active” at concentrations less than 10 micromolar. IA stands for “intrinsic activity.”

SMILES: Cc1cccc(C(Cc2cc(F)ccc2F)NC(=O)NCCF)c1 (centres unmarked) [1-[2-(2,5-difluoro-phenyl)-1-m-tolyl-ethyl]-3-(2-fluoro-ethyl)-urea]
- Alpha 2C EC50 (alpha2C receptor): not active
- Alpha 2A EC50 (alpha2A receptor): not active
- EC50 (alpha2B receptor): 21.3 nM
- Alpha 2B IA (intrinsic activity) (alpha2B receptor): 1.02

SMILES: O=C(NCCF)NC(Cc1ccccc1)c1ccc(F)cc1 (centres unmarked)
- Alpha 2C EC50 (alpha2C receptor): not active
- Alpha 2A EC50 (alpha2A receptor): not active
- EC50 (alpha2B receptor): 299 nM
- Alpha 2B IA (intrinsic activity) (alpha2B receptor): 0.71

SMILES: Cc1cccc(C(Cc2ccsc2)NC(=O)NCCF)c1 (centres unmarked) [1-(2-Fluoro-ethyl)-3-(2-thiophen-3-yl-1-m-tolyl-ethyl)-urea]
- Alpha 2C EC50 (alpha2C receptor): not active
- Alpha 2A EC50 (alpha2A receptor): not active
- EC50 (alpha2B receptor): 63.4 nM
- Alpha 2B IA (intrinsic activity) (alpha2B receptor): 1.0

SMILES: O=C(NCCF)NC(Cc1ccccc1)c1ccco1 (centres unmarked) [1-(2-fluoro-ethyl)-3-(1-furan-2-yl-2-phenyl-ethyl)-urea]
- Alpha 2C EC50 (alpha2C receptor): not active
- Alpha 2A EC50 (alpha2A receptor): not active
- EC50 (alpha2B receptor): 513 nM
- Alpha 2B IA (intrinsic activity) (alpha2B receptor): 0.77

SMILES: Cc1cccc(C(Cc2cccc(F)c2F)NC(=O)NCCF)c1 (centres unmarked) [1-[2-(2,3-difluoro-phenyl)-1-m-tolyl-ethyl]-3-(2-fluoro-ethyl)-urea]
- Alpha 2C EC50 (alpha2C receptor): not active
- Alpha 2A EC50 (alpha2A receptor): not active
- EC50 (alpha2B receptor): 20.5 nM
- Alpha 2B IA (intrinsic activity) (alpha2B receptor): 1.02
